{"source": "patent US10160954B2", "about": "“Engineered physical alignment of stem cell-derived cardiomyocytes” (The Regents of the University of California, priority 2013, dated 2018)", "system": "hESC-VCMs", "assay": "Effect of isoproterenol on control and P5-aligned hESC-VCM preparations (optical mapping)", "type": "cell-based, human", "details": "for CV of control preparations: steady-state pacing at 1 Hz", "description": "HESC-VCM preparations were loaded with 4 μM di-4-ANEPPS (Invitrogen, USA) for 20 min at room temperature in Tyrode's solution, consisting of (mM) 140 NaCl, 5 KCl, 1 MgCl2, 1 CaCl2, 10 glucose, and 10 HEPES at pH 7.4, then washed twice before fluorescence imaging using a halogen light filtered by a 515±35 nm band-pass excitation filter and a 590 nm high-pass emission filter. High-resolution optical mapping of AP and conduction properties was performed using a MiCam Ultima (SciMedia, Calif., USA) with a 1X objective and a 1X condensing lens to yield a 10×10 mm^2 field of view. A custom heat plate was introduced to maintain the perfused Tyrode's solution at 37° C. Data were collected at a sampling rate of 200 Hz and analyzed using BV_Ana software (SciMedia). Isoproterenol (Sigma-Aldrich, N.Y., USA) was applied by perfusion at the concentrations indicated.\nElectrophysiological protocols were generated using a programmable stimulator (Master8, AMPI, Israel) with the stimuli delivered via a unipolar point-stimulation electrode (1.5× threshold, 10 ms duration) placed perpendicular to the preparation surface. […] The frequency was increased every minute in 0.1-Hz increments with a 5-sec pause.\nMapping was performed during the last 5-10 seconds of each frequency. […] Programmed electrical stimulation, Standard (S1-S2) programmed electrical stimulation (PES) protocol was introduced to study the electrical restitution curve (ERC) of hESC-VCMs. A premature extra-stimulus (S2) was delivered after a train of eight S1 stimuli at a basic cycle length (BCL) of 650 ms. S1-S2 interval was initiated at 600 ms and consecutively shortened in steps of 20 ms until capture has failed. […] There was a pause of 10 s after each S2. The entire stimulation protocol was performed within 30 minutes after di-4-ANEPPS staining.", "key": {"[1]": {"details": "P5-aligned preparations, 0.5 μM, n=3"}}, "data": [{"smiles": "CC(C)NCC(O)c1ccc(O)c(O)c1", "note": "(stereo not shown) [isoproterenol]", "values": [{"measurement": "CV of control preparations", "setting": "0.1 μM isoproterenol, n=3", "value": "6.3 ± 1.4", "unit": "cm/s"}, {"measurement": "CV of control preparations", "setting": "0.5 μM isoproterenol, n=3", "value": "7.6 ± 1.1", "unit": "cm/s"}, {"measurement": "CV of control preparations", "setting": "1.0 μM isoproterenol, n=3", "value": "8.1 ± 0.6", "unit": "cm/s"}, {"measurement": "depolarization (upstroke) velocity", "setting": "FIG. 6, hESC-VCMs", "value": "increasing"}, {"measurement": "AP duration", "setting": "FIG. 6F, hESC-VCMs", "value": "reduces"}, {"measurement": "sustained functional reentrant arrhythmias", "setting": "P5-aligned preparations, 0.5 μM, n=2", "value": "no sustained functional reentrant arrhythmias could be observed"}, {"measurement": "L-CV after isoproterenol", "setting": "[1]", "value": 7.76, "unit": "cm/s"}, {"measurement": "T-CV after isoproterenol", "setting": "[1]", "value": 4.91, "unit": "cm/s"}, {"measurement": "AR after isoproterenol application", "setting": "P5-aligned preparations, n=2", "value": 1.76}, {"measurement": "control preparations with spontaneous spiral waves (sustained functional reentrant arrhythmias)", "setting": "control substrates, 2 of 3 preparations, 0.5 μM per FIG. 6C", "value": 66, "unit": "%"}]}]}
